Test results from patent US12501902B2, “Compositions and methods relating to insecticides” (priority 2019, dated 2025).

Tested on: Aedes aegypti mosquitoes
Assay type: in vivo
Settings: for Synergism of the insecticide by Cha Plu (SR or words): Cha Plu at 4 μg/female; for LD50: Table 1, topical 0.2 μL, mortality at 24 hr, Cha Plu 4 μg/female where combined; for Synergism of NP by Cha Plu constituent: Table 2, 2 ug/female
Excerpt: Aedes aegypti mosquitoes of the insecticide susceptible Orlando strain and the pyrethroid-resistant Puerto Rico strain were reared using standard protocols and provided by the United States Department of Agriculture—Center of Medical, Agricultural, and Veterinary Entomology (Gainesville, FL). Mosquitoes were aspirated from colony cages raised from pupae and anesthetized on ice. […] Ten mosquitoes were used per concentration and at least three different biological cohorts were used in the analysis. Knockdown (defined as inability to fly or maintain posture) was recorded at 1 hr or other time points post application (depending on the experiment), whereas mortality (defined as no movement—ataxia) was recorded at 24 hr. […] SAS 9.4 was used to calculate the LD50 values using a PROC PROBIT model with Abbott's correction to account for any control mortality.

Compound | Synergism of the insecticide by Cha Plu (SR or words) | LD50 | Synergism of NP (PBO applied at 2 μg/female) | Synergism of NP by Cha Plu constituent
CCOCn1c(-c2ccc(Cl)cc2)c(C#N)c(Br)c1C(F)(F)F [Chlorfenapyr] | antagonism | 9.9 ng/mg | – | –
CNC(=N[N+](=O)[O-])NCc1cnc(Cl)s1 [Clothianidin, 1-(2-Chloro-1,3-thiazol-5-ylmethyl)-3-methyl-2-nitroguanidine] | strong synergist | 4.5 ng/mg | – | –
N#Cc1nn(-c2c(Cl)cc(C(F)(F)F)cc2Cl)c(N)c1[S+]([O-])C(F)(F)F (stereo not drawn) [Fipronil] | 1.02 | 0.1 ng/mg | – | –
CCCCOCCOCCOCc1cc2c(cc1CCC)OCO2 [PBO] | – | – | 3.8 fold | –
O=c1cc(-c2ccc(O)cc2)oc2c([C@@H]3O[C@H](CO)[C@@H](O)[C@H](O)[C@H]3O)c(O)cc(O)c12 [Vitexin] | – | – | – | inactive
C[C@@H]1O[C@@H](OC[C@H]2O[C@@H](Oc3c(-c4ccc(O)c(O)c4)oc4cc(O)cc(O)c4c3=O)[C@H](O)[C@@H](O)[C@@H]2O)[C@H](O)[C@H](O)[C@H]1O [rutin] | – | – | – | more than 3 fold
